Consider five molecules from paper PMC10375476, “Feedback Inhibition of Bacterial Nucleotidyltransferases by Rare Nucleotide L-Sugars Restricts Substrate Promiscuity” (Journal of the American Chemical Society, 2023).

In one experiment the target is E. coli RmlA (Escherichia coli, UniProt P37744). The experiment is described as follows: inhibition of reconstituted RmlA activity. It is filed as biochemical.
The target in the next experiment is SALTY RmlA (Salmonella enterica, UniProt P26393). The experiment is described as follows: inhibition of reconstituted RmlA activity. It is filed as biochemical.
Sequence of SALTY RmlA (P26393 whole entry): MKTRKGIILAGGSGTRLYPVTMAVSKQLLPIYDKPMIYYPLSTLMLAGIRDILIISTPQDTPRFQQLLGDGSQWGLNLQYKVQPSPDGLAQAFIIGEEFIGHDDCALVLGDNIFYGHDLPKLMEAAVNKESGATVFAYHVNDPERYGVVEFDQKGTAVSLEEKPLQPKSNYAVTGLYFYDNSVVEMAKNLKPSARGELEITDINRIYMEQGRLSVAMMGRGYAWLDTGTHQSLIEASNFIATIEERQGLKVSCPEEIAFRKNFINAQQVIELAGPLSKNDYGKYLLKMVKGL
The target of another experiment is Mtb RmlA (Mycobacterium tuberculosis, UniProt P9WH13). Description: biochemical.
Sequence of Mtb RmlA (P9WH13 whole entry): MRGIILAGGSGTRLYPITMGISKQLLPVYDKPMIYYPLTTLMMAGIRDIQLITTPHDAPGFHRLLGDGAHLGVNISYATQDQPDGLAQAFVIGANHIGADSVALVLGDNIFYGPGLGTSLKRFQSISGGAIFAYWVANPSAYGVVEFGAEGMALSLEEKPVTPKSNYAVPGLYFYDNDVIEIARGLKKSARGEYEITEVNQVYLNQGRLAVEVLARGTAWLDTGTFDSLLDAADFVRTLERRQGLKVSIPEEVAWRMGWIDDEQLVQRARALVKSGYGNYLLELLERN
The target in another experiment is Pa RmlA (Pseudomonas aeruginosa, UniProt Q9HU22). Description: inhibition of reconstituted RmlA activity. In kind it is biochemical.
Sequence of Pa RmlA (Q9HU22 1-293): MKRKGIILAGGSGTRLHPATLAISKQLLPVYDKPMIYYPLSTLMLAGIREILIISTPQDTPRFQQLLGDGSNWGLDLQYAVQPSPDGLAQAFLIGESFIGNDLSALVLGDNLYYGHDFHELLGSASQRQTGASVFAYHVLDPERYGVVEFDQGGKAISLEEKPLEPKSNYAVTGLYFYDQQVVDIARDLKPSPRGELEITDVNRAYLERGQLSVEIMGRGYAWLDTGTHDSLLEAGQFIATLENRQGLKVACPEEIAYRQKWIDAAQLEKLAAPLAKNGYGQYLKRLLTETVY

Sequence of E. coli RmlA (P37744 whole entry): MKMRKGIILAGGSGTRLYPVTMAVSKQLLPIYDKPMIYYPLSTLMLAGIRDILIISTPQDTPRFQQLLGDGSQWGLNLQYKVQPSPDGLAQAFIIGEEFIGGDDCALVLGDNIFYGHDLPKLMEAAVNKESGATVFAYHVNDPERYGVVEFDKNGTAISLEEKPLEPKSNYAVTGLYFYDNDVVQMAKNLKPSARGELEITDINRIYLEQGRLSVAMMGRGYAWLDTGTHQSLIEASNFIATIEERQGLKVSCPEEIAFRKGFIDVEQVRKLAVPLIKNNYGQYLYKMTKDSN

`Cc1cn([C@H]2C[C@H](O)[C@@H](COP(=O)(O)OP(=O)(O)O[C@@H]3O[C@@H](C)[C@H](O)[C@@H](O)[C@H]3O)O2)c(=O)[nH]c1=O` [compound 10, dTDP-α-L-Rha (α-anomer 10)]: the IC50 (in general, the concentration that gives 50% inhibition) against E. coli RmlA was above 500 µM; on SALTY RmlA it was above 500 µM; against Mtb RmlA, 500 µM; at Pa RmlA it was 250 µM.
`Cc1cn([C@H]2C[C@H](O)[C@@H](COP(=O)(O)OP(=O)(O)O[C@H]3O[C@@H](C)[C@@H](O)[C@@H](O)[C@H]3O)O2)c(=O)[nH]c1=O` [compound 2, dTDP-β-L-6dTal] came in with an IC50 against Pa RmlA of 312 µM.
On the same count and under the same terms, to `C[C@@H]1O[C@H](OP(=O)(O)OP(=O)(O)OC[C@H]2O[C@@H](n3ccc(=O)[nH]c3=O)[C@H](O)[C@@H]2O)[C@H](O)[C@H](O)[C@H]1O` [compound 12, UDP-β-L-Rha] belongs 362 µM.
As for `Cc1cn([C@H]2C[C@H](O)[C@@H](COP(=O)(O)OP(=O)(O)O[C@H]3O[C@@H](C)[C@H](O)[C@@H](O)[C@H]3O)O2)c(=O)[nH]c1=O` [compound 1, dTDP-β-L-Rha], the IC50 against E. coli RmlA turned out to be 137 µM; at SALTY RmlA it was 109 µM; at Mtb RmlA, 65.7 µM; against Pa RmlA, 25.1 µM.
The matching figures for `Cc1cn([C@H]2C[C@H](O)[C@@H](COP(=O)(O)OP(=O)(O)O[C@H]3O[C@@H](CO)[C@H](O)[C@@H](O)[C@H]3O)O2)c(=O)[nH]c1=O` [compound 11, dTDP-β-L-Man]: above 500 µM, above 500 µM, 458 µM and 376 µM.
